What was measured:
[1] = refractive index (Na D-line) (dimensionless); wn = mass fraction of the nth substance listed; settings: 100 kPa, Liquid, Standard Abbe refractometry
[2] = wn = mass fraction of the nth substance listed; settings: 100 kPa, Liquid; for electrical conductivity: Alternating current cell with electrodes; for viscosity: Capillary tube (Ostwald / Ubbelohde) method; for mass density: Vibrating tube method

O=S(=O)([O-])[O-].[Cu+2] [copper sulfate] + O
Settings | electrical conductivity, [2] [S/m] | mass density, [2] [kg/m3] | refractive index, [1] | viscosity, [2] [mPa·s]
288.15 K, w1 = 0.0101 | 0.492 | 1009.6 | 1.3353 | 1.188
288.15 K, w1 = 0.0202 | 0.851 | 1019.98 | 1.3372 | 1.263
288.15 K, w1 = 0.0305 | 1.17 | 1030.49 | 1.3391 | 1.344
288.15 K, w1 = 0.0409 | 1.47 | 1041.68 | 1.3411 | 1.371
288.15 K, w1 = 0.0514 | 1.76 | 1052.54 | 1.3429 | 1.404
288.15 K, w1 = 0.0621 | 2.03 | 1063.7 | 1.3449 | 1.472
288.15 K, w1 = 0.0729 | 2.29 | 1074.95 | 1.3469 | 1.591
288.15 K, w1 = 0.0838 | 2.54 | 1086.38 | 1.3488 | 1.649
288.15 K, w1 = 0.0948 | 2.77 | 1098.22 | 1.3508 | 1.744
293.15 K, w1 = 0.0101 | 0.548 | 1008.63 | 1.3348 | 1.083
293.15 K, w1 = 0.0202 | 0.943 | 1019.09 | 1.3367 | 1.132
293.15 K, w1 = 0.0305 | 1.31 | 1029.38 | 1.3384 | 1.191
293.15 K, w1 = 0.0409 | 1.63 | 1040.53 | 1.3405 | 1.199
293.15 K, w1 = 0.0514 | 1.96 | 1051.49 | 1.3424 | 1.273
293.15 K, w1 = 0.0621 | 2.26 | 1062.26 | 1.3444 | 1.31
293.15 K, w1 = 0.0729 | 2.55 | 1073.67 | 1.3463 | 1.393
293.15 K, w1 = 0.0838 | 2.82 | 1084.84 | 1.3483 | 1.452
293.15 K, w1 = 0.0948 | 3.09 | 1096.44 | 1.3504 | 1.528
298.15 K, w1 = 0.0101 | 0.61 | 1007.43 | 1.3343 | 0.937
298.15 K, w1 = 0.0202 | 1.05 | 1017.84 | 1.3362 | 1.001
298.15 K, w1 = 0.0305 | 1.45 | 1028.06 | 1.3379 | 1.018
298.15 K, w1 = 0.0409 | 1.83 | 1039 | 1.34 | 1.068
298.15 K, w1 = 0.0514 | 2.18 | 1049.67 | 1.3418 | 1.123
298.15 K, w1 = 0.0621 | 2.52 | 1060.66 | 1.3437 | 1.142
298.15 K, w1 = 0.0729 | 2.84 | 1071.85 | 1.3456 | 1.227
298.15 K, w1 = 0.0838 | 3.16 | 1083.16 | 1.3476 | 1.288
298.15 K, w1 = 0.0948 | 3.44 | 1094.5 | 1.3495 | 1.36
303.15 K, w1 = 0.0101 | 0.664 | 1005.98 | 1.3338 | 0.835
303.15 K, w1 = 0.0202 | 1.14 | 1016.35 | 1.3356 | 0.892
303.15 K, w1 = 0.0305 | 1.59 | 1026.77 | 1.3373 | 0.918
303.15 K, w1 = 0.0409 | 2 | 1037.41 | 1.3392 | 0.952
303.15 K, w1 = 0.0514 | 2.38 | 1048.04 | 1.3411 | 1.014
303.15 K, w1 = 0.0621 | 2.75 | 1058.96 | 1.343 | 1.029
303.15 K, w1 = 0.0729 | 3.1 | 1070.1 | 1.3449 | 1.098
303.15 K, w1 = 0.0838 | 3.44 | 1081.38 | 1.3468 | 1.122
303.15 K, w1 = 0.0948 | 3.76 | 1092.64 | 1.3488 | 1.203
308.15 K, w1 = 0.0101 | 0.719 | 1004.32 | 1.3331 | 0.758
308.15 K, w1 = 0.0202 | 1.24 | 1014.65 | 1.3349 | 0.8
308.15 K, w1 = 0.0305 | 1.72 | 1024.97 | 1.3367 | 0.835
308.15 K, w1 = 0.0409 | 2.16 | 1035.64 | 1.3387 | 0.857
308.15 K, w1 = 0.0514 | 2.57 | 1046.35 | 1.3405 | 0.883
308.15 K, w1 = 0.0621 | 2.97 | 1057.16 | 1.3426 | 0.948
308.15 K, w1 = 0.0729 | 3.36 | 1068.13 | 1.3445 | 0.99
308.15 K, w1 = 0.0838 | 3.74 | 1078.76 | 1.3463 | 1.022
308.15 K, w1 = 0.0948 | 4.09 | 1091.27 | 1.3481 | 1.089
